In general, IC50 refers to the concentration that inhibits the measured activity by half. One may read the viability as a per cent measure of how many cells are alive, often set against a control.

Consider four molecules from publication PMC9966268, “Genotoxicity of Novel Pyrazolo[4,3-e]tetrazolo[1,5-b][1,2,4]triazine Sulfonamides in Normal and Cancer Cells In Vitro” (International Journal of Molecular Sciences, 2023).

Series [1] concerns WI-38. On the set-up: method as in PMID 35682571. As to conditions: WI-38 (head prints WI-28), 72 h incubation, MTT assay, mean; read-out: IC50 Value ± SD; cited from earlier work.
The test system of series [2] is BxPC-3. Further details: method as in PMID 35682571. As to conditions: BxPC-3, 72 h incubation, MTT assay, mean; read-out: IC50 Value ± SD; cited from earlier work. A general note: Tetrazolium dyes change colour on reduction, which living cells bring about.
Series [3] concerns BxPC-3. Description: Neutral comet assay. In kind it is cell-based, human. The following applies: 24 h. The procedure: (§1) The majority of the neutral comet assay steps were performed analogously to the alkaline version except for the electrophoresis step. In contrast to the alkaline comet assay, electrophoresis was performed in a buffer comprising 100 mM TRIS and 300 mM sodium acetate with the pH of the solution adjusted to 9.0 by glacial acetic acid, as described previously by Bukowski et al.. Electrophoresis was run at 12 V, 50 mA for 60 min. Cells were washed with distilled water twice, stained with DAPI, and analyzed as described for the alkaline comet assay.
CASP: Comet Assay Software Project Lab (http://casplab.com (accessed on 1 January 2023)) was used to establish the median value of DNA (%) in comet tails. This parameter provides a very clear picture of what the actual appearance of the comets was like. […] The data were presented with an interquartile range and minimal and maximal values using Graphpad Prism 7. Statistical analysis of comet assay results was performed using Statistica software. The Kruskal–Wallis test was used to show a statistically significant difference between groups. Multiple comparisons using mean ranks for all groups module of Statistica software were used. A p-value less than 0.05 was considered statistically significant. In all groups, N > 200.

Series [4] deals with BxPC-3. Description: Alkaline comet assay. In kind it is cell-based, human. The following applies: BxPC-3, alkaline, 24 h. The method, then: (§2) The alkaline version of the comet assay was performed according to Singh et al. (1988), with modifications. BxPC-3 and PC-3 cancer cells and normal human fibroblasts (WI-38) were seeded at a density of 1.2 × 10^5/mL onto 12-well plates. […] The experimental design included negative controls (cells treated with DMSO at 0.4% for 24 h at 37 °C). Cells were left for incubation for another 24 h (37 °C; 5% CO2). After exposure, they were transferred to Eppendorf tubes and centrifuged at 1400 rpm for 10 min at 4 °C. Afterward, the supernatant was removed, and the precipitate was diluted in PBS. The next steps were performed as previously described by Kontek and Nowicka.
(§3) After electrophoresis (conditions: 12 V, 300 mA, 25 min), slides were stained with 1 µg/mL of the intercalating agent 4′,6-diamidino-2-phenylindole (DAPI) and coverslipped. DNA damage was assessed with a fluorescence microscope at 360 nm using CellSens (Olympus) software. A total number of approximately 50 cells per slide was chosen for further analysis.
(§4) […] This parameter provides a very clear picture of what the actual appearance of the comets was like. […] The data were presented with an interquartile range and minimal and maximal values using Graphpad Prism 7. Statistical analysis of comet assay results was performed using Statistica software. The Kruskal–Wallis test was used to show a statistically significant difference between groups. Multiple comparisons using mean ranks for all groups module of Statistica software were used. A p-value less than 0.05 was considered statistically significant. In all groups, N > 200.

The subject of series [5] is PC-3. Description: Alkaline comet assay. It counts as cell-based, human. As to conditions: PC-3, alkaline, 24 h. The method, then: as §2, §3, §4
Series [6] concerns WI-38. Description: Alkaline comet assay. As to conditions: WI-38, alkaline, 24 h. In kind it is cell-based, human. The method, then:
as §2, §3, §4

The subject of series [7] is PC-3. Put plainly: Neutral comet assay. In kind it is cell-based, human. As to conditions: 24 h. The method, then: as §1, §4
In series [8] the test system is PC-3. Description: γH2AX staining. The following applies: PC-3, IC50 concentration, 24 h, foci per cell. It counts as cell-based, human. The procedure: PC-3 cells were seeded at a density of 3 × 10^4/mL onto round coverslips placed on the bottom of 12-well plates. […] After 24 h, cells were washed once with cold PBS and placed in 4% paraformaldehyde (PHA) in PBS for 10 min. at room temperature. After that, PHA was removed, and cells were permeabilized using 0.1% Triton X-100 for 10 min at 20 °C, followed by incubation in a blocking solution (1 mL/well) containing 2.5% BSA, 1.5% goat serum, and 0.1% Triton X-100 in PBS for 10 min at room temperature. The blocking solution was removed, and coverslips containing cells were incubated with anti-γ-H2AX primary antibodies in blocking solution (anti-gamma-H2AX (phosphor-Ser139) (Abcam, Cambridge, UK; 1:100)) for 1 h at room temperature. Cells were transferred into 12-well plates, washed twice in PBS (5 min each), transferred to plates, and incubated with Goat anti-Mouse IgG Cross-adsorbed antibody, Alexa Fluor 488 (Invitrogen; 1:500 in PBS) for 1 h at room temperature. Cells were washed twice in PBS, followed by incubation with DAPI solution (1 µg/mL) for 10 min at room temperature and two washes in PBS and distilled water. Coverslips were removed using tweezers and placed on microscope slides with a drop of Fluoromount-G mounting medium. The slides were placed flat at room temperature for 24 h and then stored at 4 °C. The slides were analyzed with a fluorescence microscope using CellSens (Olympus) software. A total number of approximately 100 cells per slide was chosen for further analysis. The experiment was performed in duplicate. In BxPC-3 cells, inefficient or non-specific staining was observed despite attempts to optimize the assay. Therefore, we discontinued further work on these cells with the assay.
Images for green γ-H2AX (Alexa Fluor 488) and blue nuclear signals (DAPI) were taken using an Olympus camera. ImageJ software “find maxima” and “count” functions were used to determine the number of γ-H2AX foci in each cell. The “preview point selection” option and “prominence” were chosen based on the accuracy of coverage of γ-H2AX foci. Data were analyzed using GraphPad Prism 7.0 software system (GraphPad Prism Software Inc., USA) and Statistica software. The Kruskal–Wallis test was used to show a statistically significant difference between groups. Multiple comparisons using mean ranks for all groups module of Statistica software were used. A p-value less than 0.05 was considered statistically significant (p < 0.05). In all groups, N > 200.

In series [9] the test system is PC-3. Further details: method as in PMID 35682571. As to conditions: PC-3, 72 h incubation, MTT assay, mean; read-out: IC50 Value ± SD; cited from earlier work.
The test system of series [10] is BxPC-3 and PC-3 cancer cell lines. Further details: method as in PMID 35682571. As to conditions: BxPC-3 and PC-3, 72 h MTT assay; read-out: IC50 (range over cancer cell lines); cited from earlier work.
The nature of the next series: Alamar blue assay. It counts as cell-based. As to conditions: human. The method, then: Alamar blue works as a non-toxic and membrane-permeable redox indicator that is often used to assess the metabolic activity of cells. Over the past 50 years, the alamar blue reagent has been used to measure cell viability and cytotoxicity in a variety of cell types. In this study, alamar blue (BioRAD) was used to assess cell viability before the performance of the neutral comet assay. Nunc microtiter, flat-bottomed 96-well plates were seeded at a density of approximately 1 × 10^4 cells per 100 µL medium per well. Following the given incubation period in controlled conditions (37 °C; 5% CO2), cells were exposed to 11 different concentrations of tested compounds in DMSO (range 0.05–3 µM) in a volume of 100 µL medium per well. The final solvent concentration was <0.5% v/v. The experimental design included negative controls and blanks (wells without cells).
Following a 24 h incubation period, 20 µL of alamar blue was added to each well of the experimental plate. Cells were incubated in a humidified atmosphere for 4 h (37 °C; 5% CO2). The absorbance reading was performed at 570 and 600 nm using a spectrophotometer (microplate reader Power Wave XS BioTek Instruments, Inc., USA). The experiments were performed in triplicate.
The percentage difference between treated and control cells was calculated using the formula provided by the producer (BioRad). (1) Percentage difference between treated and control cells=O2×A1 −O1×A2 /O2×P1−O1×P2×100
Background: The colour change of resazurin is a common sign of viable cells or microbes.

Setting [11] is: BxPC-3, neutral, positive control 20 µM.
The mark [12] stands for this setting: PC-3, neutral, positive control 20 µM.

As to `Cc1nn(-c2ccc(S(=O)(=O)N3CCOCC3)cc2)c2nn3nnnc3nc12` [MM136], the IC50 with WI-38 [1] is 480 ± 90 nM; with BxPC-3 [2], 250 ± 80 nM; with PC-3 [9] it was 130 ± 10 nM. The “mean tail DNA % (double-strand breaks)” value in the series on BxPC-3 [3] (human) is recorded as 5.08%; in the series with PC-3 [7] (human), 8%. Further, the entries for the “median tail DNA % (double-strand breaks)” value in the series with BxPC-3 [3] (human) and with PC-3 [7] (human) were 4.10% and 4.6%, respectively. In addition, the results for the “mean tail DNA %” value in the series with BxPC-3 [4] (IC50 concentration), with PC-3 [5] (IC50 concentration) and in the series on WI-38 [6] (IC50 concentration) were 14.36%, 12.08% and 0.72%, respectively. For the same molecule, the “median tail DNA %” value in the series with BxPC-3 [4] (IC50 concentration) was found to be 8.28%; in the series on PC-3 [5] (IC50 concentration) it was 1.63%; in the series with WI-38 [6] (IC50 concentration), 0.01%. The “mean number of γH2AX foci” value in the series with PC-3 [8] was 14.71. Moreover, the “median number of γH2AX foci” value in the series on PC-3 [8] was 11.

Regarding `Cc1nn(-c2ccc(S(=O)(=O)N3CCN(C)CC3)cc2)c2nn3nnnc3nc12` [MM137], the IC50 in the series with WI-38 [1] is 270 ± 40 nM; in the series with BxPC-3 [2] it was 160 ± 40 nM; in the series with PC-3 [9] it was 110 ± 7 nM. Also, the “mean tail DNA %” value in the series with BxPC-3 [4] (IC50 concentration) is reported as 12.07%; in the series with PC-3 [5] (IC50 concentration), 11.05%; with WI-38 [6] (IC50 concentration), 1.26%. Also, the entries for the “median tail DNA %” value with BxPC-3 [4] (IC50 concentration), in the series on PC-3 [5] (IC50 concentration) and with WI-38 [6] (IC50 concentration) were 3.28%, 2.32% and 0.09%, respectively. In addition, in the series with PC-3 [7] (human), the “mean tail DNA % (double-strand breaks)” value stood at 4.45%. Besides, in the series on PC-3 [7] (human), the “median tail DNA % (double-strand breaks)” value is recorded as 2.82%. In addition, the “mean number of γH2AX foci” value in the series with PC-3 [8] is reported as 17.52. Also, the “median number of γH2AX foci” value with PC-3 [8] is given as 15.

Turning to `Cc1nn(-c2ccc(S(=O)(=O)N3CCCCC3)cc2)c2nn3nnnc3nc12` [MM139], the IC50 in the series on WI-38 [1] is 540 nM; in the series on BxPC-3 [2], 330 ± 140 nM; in [10] it was 170 to 330 nM; in the series with PC-3 [9] it was 170 ± 3 nM. The “mean tail DNA % (double-strand breaks)” value was determined as 4.86% in the series with BxPC-3 [3] (human) and 6.07% with PC-3 [7] (human). For the same molecule, the “median tail DNA % (double-strand breaks)” value in the series with BxPC-3 [3] (human) stood at 3.72%; in the series with PC-3 [7] (human), 5%. In addition, the “mean tail DNA %” value in the series on BxPC-3 [4] (IC50 concentration) is 10.85%; with PC-3 [5] (IC50 concentration), 14.22%; in the series with WI-38 [6] (IC50 concentration), 2.97%. The “median tail DNA %” value in the series with BxPC-3 [4] (IC50 concentration) was 4.74%; in the series on PC-3 [5] (IC50 concentration), 3.35%; with WI-38 [6] (IC50 concentration) it was 0.085%. The “mean number of γH2AX foci” value in the series with PC-3 [8] was determined as 15.37. Besides, the “median number of γH2AX foci” value in the series on PC-3 [8] amounted to 12. The viability at 24 h, 3 µM was 75.3 ± 0.99% in “Alamar blue assay” (BxPC-3 cells, BxPC-3, 3 µM) and 88.4 ± 1.72% in “Alamar blue assay” (PC-3 cells, PC-3, 3 µM).

In the case of bleomycin [reference compound], the “mean tail DNA % (double-strand breaks)” value in the series with BxPC-3 [3] (setting [11]) is reported as 11.15%; in the series with PC-3 [7] (setting [12]) it was 12.9%. In addition, the “median tail DNA % (double-strand breaks)” value came out at 9.7% in the series with BxPC-3 [3] (setting [11]) and 10.4% in the series with PC-3 [7] (setting [12]). The “mean tail DNA %” value was 48.3% with BxPC-3 [4] (positive control 20 µM), 22.07% in the series with PC-3 [5] (positive control 20 µM) and 32.6% in the series with WI-38 [6] (positive control 20 µM). Also, the “median tail DNA %” value in the series with BxPC-3 [4] (positive control 20 µM) turned out to be 50.8%; with PC-3 [5] (positive control 20 µM), 19.31%; with WI-38 [6] (positive control 20 µM), 29.13%.
